Data reported in US8080582B2, “Derivatives of 8-epiblechnic acid and their effects on down-regulation of endothelin (ETA) receptor mRNA” (ScinoPharm Taiwan Ltd., priority 2008, dated 2011).

What was measured:
Type in all cases: cell-based
[1] = test system: ETAR protein expression; experiment: Western blot of ETAR protein expression in vascular smooth muscle cells; details: 100 μg/ml, 48 hrs
Experimental: The smooth muscle cells (5×10^5 cells in 35 mm culture dish) were treated with Sal-B and its analogs for 48 hrs, and then a proteinase inhibitor solution was used to collect proteins from the cells.
The protein concentrations in the samples were calculated by using BSA as the standards to construct a standard curve. After mixing Bradford Protein assay reagent evenly with the standards or the samples, the OD595 absorption values were measured. Standard curve was constructed by plotting OD595 values of the BSA standards versus their concentrations. The protein concentrations of the samples were calculated from the standard curve.
Bio-Rad's Mini-Protean III Dual Slab Cell instrument was used. A 12% polyacrylamide separating gel solution was prepared and placed into a electrophoretic gel preparation device. Deionized water was added to flat the surface of the separating gel solution, and the water was poured off after the gel had coagulated. A stacking gel solution containing 5% polyacrylamide was added and then a comb was inserted. The comb was removed after the stacking gel had coagulated, and the gel was placed into an upright electrophoresis tank. A suitable amount of running buffer was added, and then the protein samples were loaded into the wells of stacking gel layer. […]

[2] = test system: breast cancer cells (MCF-7); experiment: MTT cell viability, breast cancer cells; details: MCF-7, different concentrations (0-0.5 mM), 48 hrs
Experimental: The cells (1×10^5 cells/well in 24-well plates) were cultured for 24 hrs. Different concentrations of Sal-B and its analogs (0, 50, 100, 150, 200, 250 μg/ml) were added to treat the cells. After treating for 48 hrs, 100 μl MTT solution was added to each well, and the plate was placed in an incubator for 1-4 hrs. After adding 400 μl DMSO to treat the cells for 30 min., 200 μl samples were collected and placed in a 96-well plate to conduct the absorption measurement at 550 nm.
Cancer cells were treated with Sal-B and EBA at concentrations of 0, 0.1, 0.2, 0.3, 0.4, 0.5 mM. After treating for 48 hrs, MTT was added, and then allowed to react for 3 hrs at 37° C. After that, DMSO was added and allowed to react for 30 min., the OD570 absorption values were measured. Cell viability was above 80% when nasopharyngeal cancer cells (Hone-1) were treated with […] Sal-B and EBA. […] But the cell viability remained above 70% for treating with 0.1 mM and 0.2 mM EBA. Similar results were obtained when prostate cancer cells (PC-3) were treated with the drugs: Cell viability was above 80% for treating PC-3 cells with 0.2 mM Sal-B or EBA.

[3] = test system: ETAR gene expression in PC-3 cells; experiment: PCR of ETAR gene expression in PC-3 cancer cells; details: 48 hrs
Experimental: PC-3 and MCF-7 cancer cells were treated with Sal-B and EBA for 48 hrs, and the identical concentrations of cellular whole RNA were sampled for the synthesis of cDNA by using reverse transcriptase. The PCR method was then used to compare the amounts of endothelin receptor mRNA expression. While the PC-3 cells were treated with either Sal-B or EBA, its ETAR gene expression was not reduced.

[4] = test system: endothelin receptor mRNA expression; experiment: PCR of endothelin receptor mRNA expression in vascular smooth muscle cells; details: 100 μg/ml, 48 hrs, PCR 25 or 30 reaction cycles
Experimental: Extraction of cellular RNA: Subculturing smooth muscle cells to 100-mm culture dishes. After the cells had filled the culture dishes, Sal-B and its analogs were added to treat the cells for 48 hrs. After that, 1×PBS solutions were added to wash the cells three times. After adding 1 ml TRIzol, the cells were scraped off and placed in 1.5 ml micro-centrifuge tubes. Following the addition of 0.2 ml chloroform to each tube, the tubes were shaken, left at room temperature for 3 min., and run in a centrifuge at 12,000 rpm for 15 min. The supernatant liquid was removed and the cells placed in new micro-centrifuge tubes. After adding an amount of isopropyl alcohol equivalent to one-half of the volume of the supernatant liquid, and mixing until homogeneous, the samples were allowed to stand at room temperature for 10 min. The supernatant liquid was removed after centrifugation at 12,000 rpm for 10 min. 1 ml 70% alcohol was added to wash out salts, followed by centrifugation for 5 min. and removal of supernatant liquid. The samples were dissolved in 50 μl DEPC-H2O after drying.
(1) cDNA synthesis: 1 μl Random hexamer primer (20 μM) and 1 μl dNTP(10 mm) were added to 3 μg RNA, which was allowed to react at 65° C. for 5 min., and then placed on ice promptly. […]

## epiblechnic acid [EBA]
[1]
  ETAR protein expression compared with control: significantly reduced
[2]
  Effect on cancer cell viability: no significant effect on cancer cell viability
[3]
  ETAR gene expression: not reduced
[4]
  Endothelin receptor mRNA expression compared with control: reduced as comparing with the control

## O=C(/C=C/c1ccc(O)c2c1[C@H](C(=O)O[C@H](Cc1ccc(O)c(O)c1)C(=O)[O-])[C@@H](c1ccc(O)c(O)c1)O2)O[C@H](Cc1ccc(O)c(O)c1)C(=O)[O-].[Mg+2] [Sal-B, magnesium lithospermate B]
[1]
  ETAR protein expression compared with control: significantly reduced
[2]
  Effect on cancer cell viability: no significant effect on cancer cell viability
[3]
  ETAR gene expression: not reduced
[4]
  Endothelin receptor mRNA expression compared with control: reduced as comparing with the control
